Test results as given in ChEMBL document CHEMBL3352679, “Structure and evaluation of antibacterial and antitubercular properties of new basic and heterocyclic 3-formylrifamycin SV derivatives obtained via 'click chemistry' approach” (Eur J Med Chem, 2014).
≈ marks a conversion by molar mass, not a printed value.

Test system: Mycobacterium tuberculosis variant bovis
Test: Antituberculosis activity against Mycobacterium bovis after 14 days by serial microdilution method
Assay type: functional
Settings: 336 h

Row | SMILES | MIC99
1 | CO[C@H]1/C=C/O[C@@]2(C)Oc3c(C)c(O)c4c(O)c(c(C=O)c(O)c4c3C2=O)NC(=O)/C(C)=C\C=C\[C@H](C)[C@H](O)[C@@H](C)[C@@H](O)[C@@H](C)[C@H](OC(C)=O)[C@@H]1C | > 1 µg/mL
2 | CO[C@H]1/C=C/O[C@@]2(C)Oc3c(C)c(O)c4c(O)c(c(CNCCN(C)C)c(O)c4c3C2=O)NC(=O)/C(C)=C\C=C\[C@H](C)[C@H](O)[C@@H](C)[C@@H](O)[C@@H](C)[C@H](OC(C)=O)[C@@H]1C | > 1 µg/mL
3 | CO[C@H]1/C=C/O[C@@]2(C)Oc3c(C)c(O)c4c(O)c(c(CNCCN5CCCC5)c(O)c4c3C2=O)NC(=O)/C(C)=C\C=C\[C@H](C)[C@H](O)[C@@H](C)[C@@H](O)[C@@H](C)[C@H](OC(C)=O)[C@@H]1C | 1 µg/mL (≈ 1.21 µM)
4 | CO[C@H]1/C=C/O[C@@]2(C)Oc3c(C)c(O)c4c(O)c(c(CNCCCN5CCCC5)c(O)c4c3C2=O)NC(=O)/C(C)=C\C=C\[C@H](C)[C@H](O)[C@@H](C)[C@@H](O)[C@@H](C)[C@H](OC(C)=O)[C@@H]1C | 1 µg/mL (≈ 1.19 µM)
5 | CO[C@H]1/C=C/O[C@@]2(C)Oc3c(C)c(O)c4c(O)c(c(CNCCCn5ccnc5)c(O)c4c3C2=O)NC(=O)/C(C)=C\C=C\[C@H](C)[C@H](O)[C@@H](C)[C@@H](O)[C@@H](C)[C@H](OC(C)=O)[C@@H]1C | 1 µg/mL (≈ 1.2 µM)
6 | CO[C@H]1/C=C/O[C@@]2(C)Oc3c(C)c(O)c4c(O)c(c(CNC5CCN(Cc6ccccc6)CC5)c(O)c4c3C2=O)NC(=O)/C(C)=C\C=C\[C@H](C)[C@H](O)[C@@H](C)[C@@H](O)[C@@H](C)[C@H](OC(C)=O)[C@@H]1C | 0.125 µg/mL (≈ 0.139 µM)
7 | CO[C@H]1/C=C/O[C@@]2(C)Oc3c(C)c(O)c4c(O)c(c(CNCCCN5CCN(CCCNCc6c7c(O)c8c(O)c(C)c9c(c8c6O)C(=O)[C@@](C)(O/C=C/[C@H](OC)[C@@H](C)[C@@H](OC(C)=O)[C@H](C)[C@H](O)[C@H](C)[C@@H](O)[C@@H](C)/C=C/C=C(/C)C(=O)N7)O9)CC5)c(O)c4c3C2=O)NC(=O)/C(C)=C\C=C\[C@H](C)[C@H](O)[C@@H](C)[C@@H](O)[C@@H](C)[C@H](OC(C)=O)[C@@H]1C | > 1 µg/mL
8 | CCCc1cn(CCNCc2c3c(O)c4c(O)c(C)c5c(c4c2O)C(=O)[C@@](C)(O/C=C/[C@H](OC)[C@@H](C)[C@@H](OC(C)=O)[C@H](C)[C@H](O)[C@H](C)[C@@H](O)[C@@H](C)/C=C/C=C(/C)C(=O)N3)O5)nn1 | 1 µg/mL (≈ 1.16 µM)
9 | CCCCCc1cn(CCCNCc2c3c(O)c4c(O)c(C)c5c(c4c2O)C(=O)[C@@](C)(O/C=C/[C@H](OC)[C@@H](C)[C@@H](OC(C)=O)[C@H](C)[C@H](O)[C@H](C)[C@@H](O)[C@@H](C)/C=C/C=C(/C)C(=O)N3)O5)nn1 | 0.5 µg/mL (≈ 0.552 µM)
10 | CO[C@H]1/C=C/O[C@@]2(C)Oc3c(C)c(O)c4c(O)c(c(CNCc5cn(CN6C(=O)c7ccccc7C6=O)nn5)c(O)c4c3C2=O)NC(=O)/C(C)=C\C=C\[C@H](C)[C@H](O)[C@@H](C)[C@@H](O)[C@@H](C)[C@H](OC(C)=O)[C@@H]1C | 0.25 µg/mL (≈ 0.259 µM)
11 | CCCc1cn(CCN2Cc3c4c(O)c5c(O)c(C)c6c(c5c3O)C(=O)[C@@](C)(O/C=C/[C@H](OC)[C@@H](C)[C@@H](OC(C)=O)[C@H](C)[C@H](O)[C@H](C)[C@@H](O)[C@@H](C)/C=C/C=C(/C)C2=N4)O6)nn1 | 0.5 µg/mL (≈ 0.591 µM)
12 | CCCCCc1cn(CCCN2Cc3c4c(O)c5c(O)c(C)c6c(c5c3O)C(=O)[C@@](C)(O/C=C/[C@H](OC)[C@@H](C)[C@@H](OC(C)=O)[C@H](C)[C@H](O)[C@H](C)[C@@H](O)[C@@H](C)/C=C/C=C(/C)C2=N4)O6)nn1 | 0.5 µg/mL (≈ 0.563 µM)
13 | CO[C@H]1/C=C/O[C@@]2(C)Oc3c(C)c(O)c4c(O)c5c(c(O)c4c3C2=O)CN(Cc2cn(CN3C(=O)c4ccccc4C3=O)nn2)C(=N5)/C(C)=C\C=C\[C@H](C)[C@H](O)[C@@H](C)[C@@H](O)[C@@H](C)[C@H](OC(C)=O)[C@@H]1C | 0.5 µg/mL (≈ 0.527 µM)
14 | CO[C@H]1/C=C\O[C@@]2(C)Oc3c(C)c(O)c4c(O)c(c(CNC5CCN(Cc6ccccc6)CC5)c(O)c4c3C2=O)NC(=O)/C(C)=C\C=C/[C@H](C)[C@H](O)[C@@H](C)[C@@H](O)[C@@H](C)[C@H](OC(C)=O)[C@@H]1C | 0.125 µg/mL (≈ 0.139 µM)
15 | CO[C@H]1/C=C/O[C@@]2(C)Oc3c(C)c(O)c4c(O)c(c(/C=N/N5CCN(C)CC5)c(O)c4c3C2=O)NC(=O)/C(C)=C\C=C\[C@H](C)[C@H](O)[C@@H](C)[C@@H](O)[C@@H](C)[C@H](OC(C)=O)[C@@H]1C [RIFAMPIN] | 0.25 µg/mL (≈ 0.304 µM)
